Measurements: patent US20200129482A1, “TREATMENT OF NON-SMALL CELL LUNG CANCER” (AbbVie Inc., priority 2017, published 2020)
“Also recorded” adds a separate entry of the source.

Columns and labels:
NSCLC patients [1] = assay: M10-898 clinical trial: survival by LSP status, C/P+veliparib vs C/P; type: in vivo, human; details: C/P+veliparib vs carboplatin/paclitaxel (C/P), FIG. 1 left
From the text: (§1) Time to death (overall survival, OS) for a given subject was defined as the number of days from the date that the subject was randomized to the date of the subject's death. All events of death were included, regardless of whether the event occurred while the subject was still taking veliparib/placebo or had previously discontinued veliparib/placebo.
(§2) Tumor samples for study were from biopsies taken prior to entry onto veliparib clinical trials M10-898 and M11-089. Tumor DNA/RNA was obtained by macrodissecting tumor area (>50% tumor content) from formalin-fixed, paraffin-embedded tumor slides. RNA and DNA was isolated using AllPrep kit (Qiagen).
RNAseq RPKM data of 52 LSP genes of Table 1 were obtained from sequenced samples of M10-898 clinical trial (https://clinicaltrials.gov/ct2/show/NCT01560104), purchased tissues and M11-089 (https://clinicaltrials.gov/ct2/show/NCT02106546). The RPKM data was log transformed and normalized in order to adjust for batch effects before entering the analyses. […]
FIG. 1 represents the impact of treatment and patient outcome in M10-898 as a function of LSP status in M10-898 (left) and M11-089 (right). […] The restricted mean survival time was calculated and is represented on the Y-axis.

NSCLC patients [2] = assay: M11-089 clinical trial: survival by LSP status or stemness score, C/P+veliparib vs C/P; type: in vivo, human; details: for median overall survival in LSP- and LSP+ patients / survival (restricted mean survival time, hazard ratio) as a function of LSP status: M11-089; for median overall survival in LSP- and LSP+ patients: C/P+veliparib vs C/P alone, FIG. 2; for survival (restricted mean survival time, hazard ratio) as a function of LSP status: C/P+veliparib vs carboplatin/paclitaxel (C/P), LSP+ vs LSP- patients, FIG. 1 right; for survival in relation to stemness score (mRNAsi): M11-089 samples, stemness score >=0.5 vs <0.5, FIGS. 4 and 5
From the text: as §1, §2
RNAseq RPKM data of 52 LSP genes of Table 1 were obtained from sequenced samples of M10-898 clinical trial (https://clinicaltrials.gov/ct2/show/NCT01560104), purchased tissues and M11-089 (https://clinicaltrials.gov/ct2/show/NCT02106546). The RPKM data was log transformed and normalized in order to adjust for batch effects before entering the analyses. Unsupervised Clustering was performed on 52 LSP genes from M10-898 and purchased tissues to form 3 clusters of subtypes (AD (Adenocarcinoma), NE (Neuroendocrine), SQ (Squamous)), according to the consistency of known histology defined biologically distinct subtypes. The 52 LSP genes from M10-898 and purchased tissues together with the AD vs. nonAD labelling from unsupervised clustering is served as the training data. A shrunken centroid classifier is built based on the training data. The final classifier takes normalized RPKM data of 52 LSP genes as input, and outputs the probability of being nonAD subtype (prob (AD)=1-prob (nonAD)) for each RNAseq sample from M11-089. The subtype calls (nonAD vs. AD) is based on the probability strength. The subtype call will be labelled unknown If the absolute logarithm of odds (defined as Prob (nonAD)/Prob (AD)) is less than 0.15.
FIG. 1 represents the impact of treatment and patient outcome in M10-898 as a function of LSP status in M10-898 (left) and M11-089 (right). Patients were categorized as LSP− or LSP+ using RNA expression as depicted on the x-axis. Patients treated with carboplatin/paclitaxel (C/P) are listed in dotted lines, patients treated with C/P+veliparib (V) are listed in solid lines. The restricted mean survival time was calculated and is represented on the Y-axis.
Summary statistics for each comparison are shown below FIG. 2.
We examined the M11-089 samples to relate the stemness index to survival with Veliparib. In general, an index ranging from 0 to 1 is created for each tumor sample. Tumor cells closer to 1 are more similar to stem cells and more aggressive than tumor cells closer to 0.
We derived the stemness score from our samples based on stemness Index Derived using OCLR (mRNAsi) (T. M. Matta, et al., Cell, 2018, 173(2): 338-354), and methodology and code reference is based on the public available information (http://tcgabiolinks.fmrp.usp.br/PanCanStem/mRNAsi.html). The log gene expression for m11-089 is the batch effect corrected combined batch 1,2,3,4 data.

C[C@]1(c2nc3c(C(N)=O)cccc3[nH]2)CCCN1 [Veliparib, veliparib]
survival (restricted mean survival time, hazard ratio) as a function of LSP status (NSCLC patients [1]): statistically significant survival advantage only in the LSP+ population
survival (restricted mean survival time, hazard ratio) as a function of LSP status (NSCLC patients [1]; listed as veliparib): benefit observed in signature subgroup
median overall survival in LSP- and LSP+ patients (NSCLC patients [2]): statistically significant survival advantage only in the LSP+ population
median overall survival in LSP- and LSP+ patients (NSCLC patients [2]; listed as veliparib): increased Overall Survival (OS) observed in LSP positive NSCLC patients
survival (restricted mean survival time, hazard ratio) as a function of LSP status (NSCLC patients [2]): statistically significant survival advantage only in the LSP+ population
survival (restricted mean survival time, hazard ratio) as a function of LSP status (NSCLC patients [2]; listed as veliparib): benefit observed in signature subgroup
survival in relation to stemness score (mRNAsi) (NSCLC patients [2]): better survival
survival in relation to stemness score (mRNAsi) (NSCLC patients [2]; listed as veliparib): better survival; also recorded: provides a benefit to subgroup of patients
